What all share (assay): DTP human tumour cell line panel, 48 h
Assay [1] concerns UACC-257 melanoma.
For assay [2], the system named is SK-OV-3 ovarian.
Assay [3] has as its system M14 melanoma.
Assay [4] concerns HOP-62 NSCLC.
The subject of assay [5] is KM12 colon.
For assay [6], the system named is CCRF-CEM leukemia.
The test system of assay [7] is OVCAR-8 ovarian.
In assay [8] the test system is UACC-62 melanoma.
The subject of assay [9] is HCT-116 colon.
Assay [10] concerns U251 CNS.

Several values for one entry are separate records, joined by “and”; a condition that tells them apart may be missing. Equal values may be shown once.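 Growth conditions: 96-well plates. Treatment: test compound, 48 hours, 5 concentrations. Analysis: linear interpolation between bracketing concentrations; unreached endpoints set to highest concentration. The concentration for 50% growth inhibition is given as GI50. TGI is the concentration that stops growth completely.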

The TGI is the concentration giving total growth inhibition. A higher TGI goes with lower sensitivity of the cells. In general, GI50 refers to the concentration at which growth is held to half of that of the control.

As for `COC(=O)c1ccc2c(c1)sc1nc(-c3ccc(OC)cc3)cn12`, the concentration for total growth inhibition (TGI) in assay [1], in assay [2], in assay [3], in [4], in assay [5] and in assay [6] was over 100 µM throughout. For the same compound, the TGI in assay [7], in assay [8], in assay [9] and in assay [10] was over 100 µM in each case.
Turning to `NC(=O)CCSC(CC(=O)c1ccc(Cl)cc1)c1ccc(Cl)cc1` (centres undefined), the TGI is over 100 µM in assay [1]; over 100 µM in assay [2]; 83.3 µM in assay [3]; 93.1 µM in [4]; 19.6 µM in [5]; 8.11 µM in [6]. The TGI in assay [7] was found to be 32.3 µM; in assay [8], 56 µM; in assay [9], 70.4 µM; in assay [10], 34.5 µM.
On to `COc1cccc(NC(=O)CC(=O)NN2C(=O)/C(=C/c3ccc(N(CCC#N)CCC#N)cc3)N=C2c2cc([N+](=O)[O-])ccc2Cl)c1`, for which the TGI in assay [2], in assay [3], in assay [4], in assay [5], in [6] and in assay [7] was over 100 µM throughout. Moreover, the total growth inhibition concentration (TGI) in assay [8], in assay [9] and in assay [10] was over 100 µM each time.
As to `CCCC[C@H]1C(=O)O[C@H](C)[C@H](NC(=O)c2cccc(NC=O)c2OC)C(=O)O[C@@H](C)[C@@H]1OC(=O)CC(C)C` (tested in a mixture with another compound), the total growth inhibition concentration (TGI) amounted to 38.6 µM in assay [1]; 30.1 µM in [2]; 46.6 µM in [3]; 44.5 µM in assay [4]; 46.9 µM in assay [5]; 24.4 µM in [6]. The total growth inhibition concentration (TGI) stood at 34.7 µM in assay [7], 18.5 µM in assay [8], 28.4 µM in assay [9] and 18.9 µM in assay [10].
Take `C/C(=C\C(=N\NC(=N)N)c1ccccc1)c1ccccc1`: the TGI in [2] came out at 15.7 µM; in [3], 2.47 µM; in assay [4], 0.7 µM; in assay [5] it was 3.67 µM; in [6] it was 1.8 µM; in [7], 4.83 µM. The total growth inhibition concentration (TGI) was 3.23 µM in [8], 1.1 µM in assay [9] and 2.04 µM in assay [10].
On to `Cc1cn(Cc2cn(CC3OC(n4cc(C)c(=O)[nH]c4=O)CC3O)nn2)c(=O)[nH]c1=O` (centres undefined), for which the concentration for total growth inhibition (TGI) in [1], in [2], in assay [3], in [4], in assay [5] and in [6] was over 100 µM throughout. Moreover, the TGI in [7], in assay [8], in assay [9] and in assay [10] was over 100 µM in each case.
`COc1ccc(N=Cc2ccc(N(CCC#N)S(=O)(=O)c3ccccc3)cc2C)cc1`: the TGI in assay [1] was over 100 µM; in [2], over 100 µM; in assay [3], 71.5 µM; in [4], over 100 µM; in assay [6], over 100 µM; in assay [7], over 100 µM. Besides, the TGI in assay [8], in assay [9] and in [10] was over 100 µM in each case.
For `C[C@H]1CCC/C=C/[C@@H]2C[C@H](O)C[C@H]2[C@H](O)/C=C/C(=O)O1`, the GI50 in assay [1] was 0.0132 µM; in [2] it was 0.0361 µM and 0.0334 µM; in assay [4], 0.0216 µM and 0.0722 µM and 0.0915 µM; in [5], 0.0197 µM; in assay [6], < 0.0183 µM and 0.0501 µM and 0.0981 µM; in [7], 0.043 µM. Besides, in [9], the GI50 is 0.0115 µM and 0.056 µM. The TGI is 6.57 µM and 0.738 µM in assay [3]; 9.24 µM and 4.21 µM in assay [4]; 5.53 µM in assay [6]; 0.0478 µM and 0.0573 µM and 0.152 µM in assay [9]; over 100 µM in assay [10].
In the case of `O=c1c(-c2ccccc2)c(SCCN2CCOCC2)n(-c2ccccc2)c(=S)n1-c1ccccc1`, the TGI in [1], in assay [2], in [4], in assay [5], in [6] and in assay [7] was over 100 µM in each case. In addition, the TGI in assay [8] and in assay [10] was over 100 µM throughout.
Regarding `O=C(O)CCCN=C(C1=C(O)C(=O)N(c2ccccc2)C1=O)c1ccccc1`, the TGI in assay [1], in [2], in [3], in assay [4], in assay [5] and in assay [6] was over 100 µM in each case. Also, the TGI in assay [7], in assay [8], in assay [9] and in assay [10] was over 100 µM throughout.
On to `COc1cc(/C=C2\N=C(c3ccccc3)N(c3nc4ccc(Sc5ccccc5)cc4[nH]3)C2=O)cc(OC)c1OC`, for which the TGI is 45.6 µM in assay [1]; over 100 µM in assay [2]; 49.7 µM in assay [3]; over 100 µM in assay [4]; 58.8 µM in assay [5]; over 100 µM in [6]. The total growth inhibition concentration (TGI) was over 100 µM in assay [7], 38.7 µM in [8], 55.2 µM in assay [9] and 43.9 µM in assay [10].
With `CCCCCCCCCCCCCCCCCC(=O)OCC1OC(OC)C(NC(=O)N(CCCl)N=O)C(O)C1O` (centres undefined), the TGI is 39.4 µM in assay [1]; over 100 µM in assay [3]; over 100 µM in assay [4]; 67.9 µM in assay [5]; over 100 µM in [7]; 23.3 µM in [8].
Take `O=c1[nH]c(=O)n(CCOCP(=O)(O)O)nc1Br`: the total growth inhibition concentration (TGI) in [3], in assay [4], in assay [5], in assay [6], in assay [7] and in [10] was over 100 µM in each case.
Take `Cc1cc(=O)n2c3c(c4c(cc13)c(CN(C)C)cc(=O)n4C)OC2`: the TGI in [1] was over 70.5 µM; in assay [2], over 94.7 µM; in assay [3], 31.2 µM; in [4], over 100 µM; in assay [5] it was 67.7 µM; in assay [6], over 100 µM. Moreover, the TGI in assay [7] was over 66.6 µM; in assay [8] it was 30.1 µM; in [9], over 69.5 µM; in [10], over 100 µM.

These data come from PubChem BioAssay (NCI).
